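96-well plates; 48 h exposure; 5 concentrations. Endpoints by linear interpolation between flanking doses. Not reached: highest tested concentration assigned. GI50 is the concentration that inhibits growth by half.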 The source made the active and inactive calls. Cut-off read from the data, not from the text of the source: active = GI50 up to about 1.1 µM and inactive = higher.
Assays:
Assay in all cases: growth of human tumour cells (NCI), 48 h
SF-539 = test system: SF-539
CCRF-CEM = test system: CCRF-CEM
A498 = test system: A498
NCI/ADR-RES = test system: NCI/ADR-RES
UACC-257 = test system: UACC-257
COLO 205 = test system: COLO 205
NCI-H23 = test system: NCI-H23
BT-549 = test system: BT-549
OVCAR-8 = test system: OVCAR-8
HCC 2998 = test system: HCC 2998
SK-MEL-2 = test system: SK-MEL-2
SF-268 = test system: SF-268
M14 = test system: M14
U-251 = test system: U-251
IGROV-1 = test system: IGROV-1
786-0 = test system: 786-0
SW-620 = test system: SW-620
SR = test system: SR
MDA-N = test system: MDA-N
LOX IMVI = test system: LOX IMVI
A549 = test system: A549
PC-3 = test system: PC-3
T47D = test system: T47D
CAKI-1 = test system: CAKI-1
MOLT-4 = test system: MOLT-4
ACHN = test system: ACHN
SK-MEL-28 = test system: SK-MEL-28
UO-31 = test system: UO-31
TK-10 = test system: TK-10
SNB-19 = test system: SNB-19
K562 = test system: K562
SK-MEL-5 = test system: SK-MEL-5
HL-60 = test system: HL-60
SNB-75 = test system: SNB-75
HCT-15 = test system: HCT-15
MDA-MB-435 = test system: MDA-MB-435
SK-OV-3 = test system: SK-OV-3
SN12C = test system: SN12C
HCT-116 = test system: HCT-116
OVCAR-5 = test system: OVCAR-5
RXF 393 = test system: RXF 393
HT-29 = test system: HT-29
RPMI-8226 = test system: RPMI-8226
Hs-578T = test system: Hs-578T
EKVX = test system: EKVX
OVCAR-3 = test system: OVCAR-3
DU-145 = test system: DU-145
KM12 = test system: KM12
SF-295 = test system: SF-295
Malme-3M = test system: Malme-3M
HOP-62 = test system: HOP-62
HOP-92 = test system: HOP-92
MDA-MB-231 = test system: MDA-MB-231
NCI-H460 = test system: NCI-H460
OVCAR-4 = test system: OVCAR-4
NCI-H522 = test system: NCI-H522
MCF7 = test system: MCF7
UACC-62 = test system: UACC-62
NCI-H226 = test system: NCI-H226

Q: With `CCOC(=O)C(NC(=O)CC)(Nc1ccc(F)cc1F)C(F)(F)F` (stereo not drawn) as the compound, how does the GI50 (SF-539) read?
A: Its GI50 is > 100 µM (inactive).

Q: And the GI50 (CCRF-CEM)?
A: Its GI50 is > 100 µM (inactive).

Q: What about the GI50 (A498) of the same compound?
A: Its GI50 is > 100 µM (inactive).

Q: And the GI50 (NCI/ADR-RES)?
A: Its GI50 is > 100 µM (inactive).

Q: And the GI50 (UACC-257)?
A: Its GI50 is > 100 µM (inactive).

Q: What about the GI50 (COLO 205) of the same compound?
A: Its GI50 is > 100 µM (inactive).

Q: And the GI50 (NCI-H23)?
A: The GI50 was > 100 µM (inactive).

Q: What about the GI50 (BT-549) of the same compound?
A: The GI50 was > 100 µM (inactive).

Q: And the GI50 (OVCAR-8)?
A: Its GI50 is > 100 µM (inactive).

Q: And the GI50 (HCC 2998)?
A: The GI50 was > 100 µM (inactive).

Q: What about the GI50 (SK-MEL-2) of the same compound?
A: Its GI50 is > 100 µM (inactive).

Q: What about the GI50 (SF-268) of the same compound?
A: The GI50 was > 100 µM (inactive).

Q: And the GI50 (M14)?
A: The GI50 was > 100 µM (inactive).

Q: What about the GI50 (U-251) of the same compound?
A: Its GI50 is > 100 µM (inactive).

Q: And the GI50 (IGROV-1)?
A: The GI50 was > 100 µM (inactive).

Q: And the GI50 (786-0)?
A: Its GI50 is > 100 µM (inactive).

Q: And the GI50 (SW-620)?
A: The GI50 was 85.7 µM (inactive).

Q: What about the GI50 (SR) of the same compound?
A: The GI50 was > 100 µM (inactive).

Q: And the GI50 (MDA-N)?
A: Its GI50 is 31.9 µM (inactive).

Q: And the GI50 (LOX IMVI)?
A: Its GI50 is > 100 µM (inactive).

Q: And the GI50 (A549)?
A: Its GI50 is > 100 µM (inactive).

Q: What about the GI50 (PC-3) of the same compound?
A: The GI50 was > 100 µM (inactive).

Q: What about the GI50 (T47D) of the same compound?
A: The GI50 was > 100 µM (inactive).

Q: What about the GI50 (CAKI-1) of the same compound?
A: Its GI50 is 1.31 µM (inactive).

Q: What about the GI50 (MOLT-4) of the same compound?
A: The GI50 was > 100 µM (inactive).

Q: And the GI50 (ACHN)?
A: Its GI50 is > 100 µM (inactive).

Q: And the GI50 (SK-MEL-28)?
A: The GI50 was > 100 µM (inactive).

Q: And the GI50 (UO-31)?
A: The GI50 was 11.8 µM (inactive).

Q: And the GI50 (TK-10)?
A: Its GI50 is > 100 µM (inactive).

Q: And the GI50 (SNB-19)?
A: The GI50 was > 100 µM (inactive).

Q: What about the GI50 (K562) of the same compound?
A: Its GI50 is 60.4 µM (inactive).

Q: What about the GI50 (SK-MEL-5) of the same compound?
A: Its GI50 is > 100 µM (inactive).

Q: What about the GI50 (HL-60) of the same compound?
A: Its GI50 is 34 µM (inactive).

Q: What about the GI50 (SNB-75) of the same compound?
A: The GI50 was 83 µM (inactive).

Q: What about the GI50 (HCT-15) of the same compound?
A: The GI50 was greater than 100000 nM.

Q: And the GI50 (MDA-MB-435)?
A: The GI50 was 40.7 µM (inactive).

Q: What about the GI50 (SK-OV-3) of the same compound?
A: The GI50 was > 100 µM (inactive).

Q: What about the GI50 (SN12C) of the same compound?
A: Its GI50 is > 100 µM (inactive).

Q: What about the GI50 (HCT-116) of the same compound?
A: The GI50 was > 100 µM (inactive).

Q: And the GI50 (OVCAR-5)?
A: Its GI50 is > 100 µM (inactive).

Q: And the GI50 (RXF 393)?
A: Its GI50 is > 100 µM (inactive).

Q: What about the GI50 (HT-29) of the same compound?
A: Its GI50 is > 100 µM (inactive).

Q: What about the GI50 (RPMI-8226) of the same compound?
A: Its GI50 is > 100 µM (inactive).

Q: What about the GI50 (Hs-578T) of the same compound?
A: Its GI50 is 18.2 µM (inactive).

Q: And the GI50 (EKVX)?
A: Its GI50 is > 100 µM (inactive).

Q: How did the GI50 (SF-539) turn out when `COc1cc2c3c(c4ccc(OC)c(OC)c4c2cc1OC)CN1CCC[C@@H]1C3` [TYLOCREBRINE] was run?
A: The GI50 was 0.0191 µM (active).

Q: And the GI50 (OVCAR-3)?
A: Its GI50 is 107 nM (active).

Q: What about the GI50 (CCRF-CEM) of the same compound?
A: Its GI50 is 0.0269 µM (active).

Q: And the GI50 (A498)?
A: The GI50 was < 0.01 µM (active).

Q: And the GI50 (NCI/ADR-RES)?
A: The GI50 was < 0.0166 µM (active).

Q: What about the GI50 (UACC-257) of the same compound?
A: Its GI50 is 0.0612 µM (active).

Q: And the GI50 (COLO 205)?
A: Its GI50 is 0.0228 µM (active).

Q: What about the GI50 (NCI-H23) of the same compound?
A: Its GI50 is 0.016 µM (active).

Q: What about the GI50 (BT-549) of the same compound?
A: The GI50 was 0.0914 µM (active).

Q: What about the GI50 (OVCAR-8) of the same compound?
A: The GI50 was < 0.0146 µM (active).

Q: And the GI50 (DU-145)?
A: The GI50 was 24.8 nM (active).

Q: What about the GI50 (KM12) of the same compound?
A: The GI50 was 42.8 nM (active).

Q: And the GI50 (HCC 2998)?
A: The GI50 was 0.0533 µM (active).

Q: What about the GI50 (SK-MEL-2) of the same compound?
A: The GI50 was < 0.0153 µM (active).

Q: What about the GI50 (SF-268) of the same compound?
A: The GI50 was < 0.0171 µM (active).

Q: And the GI50 (M14)?
A: Its GI50 is 0.0333 µM (active).

Q: And the GI50 (U-251)?
A: The GI50 was 0.019 µM (active).

Q: What about the GI50 (IGROV-1) of the same compound?
A: Its GI50 is 0.0407 µM (active).

Q: What about the GI50 (786-0) of the same compound?
A: The GI50 was < 0.0173 µM (active).

Q: And the GI50 (SW-620)?
A: The GI50 was 0.0586 µM (active).

Q: And the GI50 (SR)?
A: Its GI50 is 0.0365 µM (active).

Q: What about the GI50 (MDA-N) of the same compound?
A: Its GI50 is 0.0622 µM (active).

Q: And the GI50 (SF-295)?
A: The GI50 was 39.5 nM (active).

Q: What about the GI50 (LOX IMVI) of the same compound?
A: The GI50 was 0.0249 µM (active).

Q: And the GI50 (A549)?
A: Its GI50 is 0.0251 µM (active).

Q: What about the GI50 (PC-3) of the same compound?
A: Its GI50 is 0.0582 µM (active).

Q: And the GI50 (CAKI-1)?
A: Its GI50 is < 0.0216 µM (active).

Q: And the GI50 (MOLT-4)?
A: Its GI50 is 0.043 µM (active).

Q: And the GI50 (ACHN)?
A: Its GI50 is 0.0444 µM (active).

Q: What about the GI50 (SK-MEL-28) of the same compound?
A: Its GI50 is 0.0307 µM (active).

Q: And the GI50 (UO-31)?
A: The GI50 was < 0.01 µM (active).

Q: And the GI50 (Malme-3M)?
A: Its GI50 is 24.8 nM (active).

Q: And the GI50 (TK-10)?
A: The GI50 was 0.0574 µM (active).

Q: And the GI50 (SNB-19)?
A: The GI50 was 0.0163 µM (active).

Q: And the GI50 (K562)?
A: Its GI50 is 0.0191 µM (active).

Q: And the GI50 (HOP-62)?
A: Its GI50 is 31.6 nM (active).

Q: What about the GI50 (HOP-92) of the same compound?
A: The GI50 was < 24.6 nM (active).

Q: And the GI50 (MDA-MB-231)?
A: The GI50 was 20.4 nM (active).

Q: And the GI50 (SK-MEL-5)?
A: The GI50 was 0.0292 µM (active).

Q: And the GI50 (NCI-H460)?
A: The GI50 was 39.2 nM (active).

Q: And the GI50 (HL-60)?
A: The GI50 was 0.0343 µM (active).

Q: What about the GI50 (SNB-75) of the same compound?
A: Its GI50 is < 0.01 µM (active).

Q: And the GI50 (HCT-15)?
A: Its GI50 is 31.2 nM.

Q: And the GI50 (OVCAR-4)?
A: The GI50 was 30.1 nM (active).

Q: What about the GI50 (MDA-MB-435) of the same compound?
A: Its GI50 is 0.0365 µM (active).

Q: And the GI50 (NCI-H522)?
A: The GI50 was 31.3 nM (active).

Q: And the GI50 (SK-OV-3)?
A: Its GI50 is 0.124 µM (active).

Q: What about the GI50 (SN12C) of the same compound?
A: The GI50 was 0.0564 µM (active).

Q: And the GI50 (HCT-116)?
A: Its GI50 is 0.0266 µM (active).

Q: What about the GI50 (OVCAR-5) of the same compound?
A: Its GI50 is 0.0745 µM (active).

Q: What about the GI50 (MCF7) of the same compound?
A: The GI50 was 54.8 nM (active).

Q: What about the GI50 (RXF 393) of the same compound?
A: Its GI50 is < 0.0155 µM (active).

Q: And the GI50 (UACC-62)?
A: The GI50 was < 10 nM (active).

Q: And the GI50 (HT-29)?
A: The GI50 was 0.0208 µM (active).

Q: What about the GI50 (RPMI-8226) of the same compound?
A: The GI50 was 0.0325 µM (active).

Q: What about the GI50 (Hs-578T) of the same compound?
A: Its GI50 is 0.0182 µM (active).

Q: What about the GI50 (EKVX) of the same compound?
A: The GI50 was 0.0172 µM (active).

Q: What about the GI50 (NCI-H226) of the same compound?
A: The GI50 was < 17.6 nM (active).

Reference: ChEMBL document CHEMBL1201862, “PubChem BioAssay data set” (2004)
